The structures appear in SMILES notation. Where two headings read alike, the source gives them in different places.

Test [1] deals with NCI-H460 (lung large cell). Nature of the test: NCI-H460 cell growth inhibition (MTT). In kind it is cell-based, human. The conditions noted are these: Homo sapiens, NCI-H460.
Test [2] deals with cancer cell growth (average). Nature of the test: Inhibition of cancer cell growth (average). The class given is cell-based. The conditions noted are these: Homo sapiens. Here is the method:
Compound 754 was synthesized and tested for activity.
Cell Growth Inhibition Assays. The human tumor cell lines MCF-7 (breast adenocarcinoma), NCI-H460 (lung large cell) and SF-268 (central nervous system glioblastoma) were obtained from the National Cancer Institute. All lines were cultured in RPMI-1640 medium supplemented with 10% fetal bovine serum and 2 mM L-glutamine at 37° C. in a 5% CO2 atmosphere with 100% humidity. A broth microdilution method was used to determine IC50 values for growth inhibition by each bisphosphonate. […] NBPs were typically initially dissolved in H2O (0.01 M) while NNBPs were typically dissolved in DMSO (0.01 M). Plates were then incubated for 4 days at 37° C. in a 5% CO2 atmosphere at 100% humidity after which an MTT ((3-(4,5-dimethylthiazole-2-yl)-2,5-diphenyltetrazolium bromide) cell proliferation assay (ATCC, Manassas, Va.) was used to obtain dose-response curves. The DMSO carrier had no effect on cell proliferation.

On to `CCCCCCCCCCOc1cccc(CC(O)(P(=O)(O)O)P(=O)(O)O)c1` [BPH-754], for which the IC50 in test [1] (Table 1, experimental, read-out: NCI-H460 pIC50 (converted)) is 20000 nM; in test [1] (read-out: IC50, inhibition of human lung cancer NCIH460) it was 672 nM; in test [2], 500 nM.
